The values below come from ChEMBL document CHEMBL5252515, “Discovery of 6-Amino-2-{[(1S)-1-methylbutyl]oxy}-9-[5-(1-piperidinyl)pentyl]-7,9-dihydro-8H-purin-8-one (GSK2245035), a Highly Potent and Selective Intranasal Toll-Like Receptor 7 Agonist for the Treatment of Asthma” (J Med Chem, 2016).

Data set [1] addresses T1, Toll-like receptor 7 (Macaca fascicularis) (UniProt B3Y652).
T1 sequence (whole entry): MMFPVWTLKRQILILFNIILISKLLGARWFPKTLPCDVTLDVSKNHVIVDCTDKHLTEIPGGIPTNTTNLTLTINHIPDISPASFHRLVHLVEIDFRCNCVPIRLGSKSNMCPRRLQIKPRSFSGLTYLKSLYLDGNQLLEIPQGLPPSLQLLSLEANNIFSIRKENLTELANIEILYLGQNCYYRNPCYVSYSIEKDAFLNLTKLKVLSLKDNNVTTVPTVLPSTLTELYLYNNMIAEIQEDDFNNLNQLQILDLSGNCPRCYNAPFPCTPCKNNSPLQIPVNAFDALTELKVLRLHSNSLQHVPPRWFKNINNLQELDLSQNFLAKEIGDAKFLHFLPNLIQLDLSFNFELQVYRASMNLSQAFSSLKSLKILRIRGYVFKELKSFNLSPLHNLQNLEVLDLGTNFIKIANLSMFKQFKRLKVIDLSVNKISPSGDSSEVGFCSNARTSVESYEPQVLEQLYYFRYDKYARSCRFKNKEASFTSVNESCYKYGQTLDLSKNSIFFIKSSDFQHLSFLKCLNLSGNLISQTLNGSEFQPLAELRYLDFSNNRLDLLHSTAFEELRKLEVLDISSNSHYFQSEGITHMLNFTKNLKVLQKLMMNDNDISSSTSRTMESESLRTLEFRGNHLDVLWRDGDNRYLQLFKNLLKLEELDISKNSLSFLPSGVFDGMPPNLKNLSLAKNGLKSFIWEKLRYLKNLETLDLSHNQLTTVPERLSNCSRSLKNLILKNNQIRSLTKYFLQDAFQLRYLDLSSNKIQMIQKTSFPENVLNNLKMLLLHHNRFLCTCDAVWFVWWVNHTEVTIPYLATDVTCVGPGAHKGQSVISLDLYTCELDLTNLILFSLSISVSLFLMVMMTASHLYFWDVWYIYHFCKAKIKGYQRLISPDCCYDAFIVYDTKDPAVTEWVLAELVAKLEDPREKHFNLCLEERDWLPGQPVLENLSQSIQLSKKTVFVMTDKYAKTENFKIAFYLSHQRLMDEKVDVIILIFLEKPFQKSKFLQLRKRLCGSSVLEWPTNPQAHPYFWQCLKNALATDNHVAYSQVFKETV
Description: In vivo target occupancy at TLR7 in cynomolgus monkey assessed as fold increase in IFIT2 mRNA expression in nasal scrape at 3 ng/kg administered intranasally incubated for 24 hrs by TaqMan analysis (reference value: 2.1). Type of data set: functional. A general note: In qPCR the cycle at which signal appears reflects the starting amount.

The nature of data set [2]: Systemic clearance in rat. Type of data set: ADME. As to conditions: in vivo.
Data set [3] is described as follows: Oral bioavailability in rat. Type of data set: ADME, organism-based. The following applies: in vivo.
Data set [4] deals with T1, Toll-like receptor 7 (Macaca fascicularis). The data set can be described thus: In vivo target occupancy at TLR7 in cynomolgus monkey assessed as fold increase in OAS1 mRNA expression in nasal scrape at 30 ng/kg administered intranasally incubated for 24 hrs by TaqMan analysis (reference value: 1.2). The format is functional.
Data set [5] deals with Toll-like receptor 3 (Homo sapiens) (UniProt O15455). Description: Agonist activity at TLR3 (unknown origin) expressed in HEK cells upto 50 uM by luciferase reporter assay. The format is cell-based. Background: A reporter such as luciferase makes a cellular process visible.
Data set [6] has as its system Mus musculus. Description: Increase in IFN-alpha level in BALB/c mouse serum at 0.3 mg/kg, administered intranasally after 2 hrs by ELISA. Type of data set: functional, organism-based. In general terms: An ELISA detects its analyte on a solid surface through an enzyme-linked reagent.
The next data set concerns PBMC. The data set can be described thus: Immunomodulatory activity in human PBMC assessed as IFNalpha production incubated for 6 days in presence of allergen house dust mite. The format is functional, cell-based. As to conditions: time 6.0 day.
Data set [7] concerns the target T1, Toll-like receptor 7 (Macaca fascicularis). The data set can be described thus: In vivo target occupancy at TLR7 in cynomolgus monkey assessed as fold increase in OAS3 mRNA expression in nasal scrape at 30 ng/kg administered intranasally incubated for 24 hrs by TaqMan analysis (reference value: 0.9). The format is functional.
Data set [8] addresses T2, Toll-like receptor 7 (Homo sapiens, UniProt Q9NYK1).
T2 sequence (Q9NYK1 whole entry): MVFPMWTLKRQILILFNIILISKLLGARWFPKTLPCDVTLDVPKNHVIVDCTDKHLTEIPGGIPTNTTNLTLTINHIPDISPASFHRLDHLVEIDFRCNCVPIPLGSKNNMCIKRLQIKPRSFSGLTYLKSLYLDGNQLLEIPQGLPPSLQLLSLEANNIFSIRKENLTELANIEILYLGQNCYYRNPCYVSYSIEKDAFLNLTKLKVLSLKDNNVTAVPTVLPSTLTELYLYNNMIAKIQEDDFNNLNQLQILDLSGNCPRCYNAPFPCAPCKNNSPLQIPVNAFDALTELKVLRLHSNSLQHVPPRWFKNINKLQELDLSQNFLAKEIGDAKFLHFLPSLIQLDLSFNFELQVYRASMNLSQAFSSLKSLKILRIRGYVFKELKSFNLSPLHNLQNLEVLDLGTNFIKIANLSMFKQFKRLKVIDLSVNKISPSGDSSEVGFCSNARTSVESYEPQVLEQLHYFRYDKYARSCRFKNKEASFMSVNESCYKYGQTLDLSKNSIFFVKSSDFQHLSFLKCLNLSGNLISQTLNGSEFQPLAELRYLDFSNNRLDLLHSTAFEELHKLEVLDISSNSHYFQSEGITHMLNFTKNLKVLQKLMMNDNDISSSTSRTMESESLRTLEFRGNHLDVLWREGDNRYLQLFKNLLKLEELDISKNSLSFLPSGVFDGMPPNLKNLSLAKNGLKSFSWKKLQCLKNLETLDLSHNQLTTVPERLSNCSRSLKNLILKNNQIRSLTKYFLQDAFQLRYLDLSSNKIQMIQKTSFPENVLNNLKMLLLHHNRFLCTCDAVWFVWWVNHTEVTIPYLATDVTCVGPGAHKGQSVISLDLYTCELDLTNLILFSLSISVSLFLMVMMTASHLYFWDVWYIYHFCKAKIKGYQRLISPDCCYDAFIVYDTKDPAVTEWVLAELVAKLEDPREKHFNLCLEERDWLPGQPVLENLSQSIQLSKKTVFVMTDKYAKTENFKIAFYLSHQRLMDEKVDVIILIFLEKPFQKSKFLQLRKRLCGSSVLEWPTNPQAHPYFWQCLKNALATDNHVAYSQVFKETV
Description: Agonist activity at TLR7 in human whole blood assessed as induction of IL-12p70 production after 20 hrs by electrochemiluminescence assay. Type of data set: tissue-based.

For data set [9], the system named is Mus musculus. The data set can be described thus: Increase in IP-10 level in BALB/c mouse serum at 0.1 mg/kg, administered intranasally after 2 hrs by ELISA. The format is functional, organism-based.
The test system of the next data set is Rattus norvegicus. Description: Induction of IFNalpha production in rat at 0.4 mg/kg measured after 2 hrs. Type of data set: functional, organism-based.
Data set [10] can be described thus: Bioavailability in mouse after intranasal administration. The format is ADME, organism-based. As to conditions: in vivo, inhaled or intranasal.
Data set [11] can be described thus: Systemic clearance in mouse. Type of data set: ADME, organism-based. As to conditions: in vivo.
For data set [12], the target named is T1, Toll-like receptor 7 (Macaca fascicularis). The data set can be described thus: In vivo target occupancy at TLR7 in cynomolgus monkey assessed as fold increase in GBP1 mRNA expression in nasal scrape at 3 ng/kg administered intranasally incubated for 24 hrs by TaqMan analysis (reference value: 2.4). Type of data set: functional.
Data set [13] concerns the target T2, Toll-like receptor 7. Description: Agonist activity at TLR7 in human whole blood assessed as induction of IFNalpha production after 20 hrs by electrochemiluminescence assay. The format is tissue-based.
In data set [14] the target is T3, Toll-like receptor 7 (Macaca fascicularis, UniProt B3Y652).
T3 sequence (B3Y652 whole entry): T1 sequence (whole entry)
Description: Agonist activity at TLR7 in cynomolgus monkey whole blood assessed as induction of IFNalpha production. The format is tissue-based.

The structures appear in SMILES notation. Activity calls are given as the source filed them. No cut-off for these calls is given here.

Toll-like receptor 3 (Homo sapiens), sequence (O15455 whole entry): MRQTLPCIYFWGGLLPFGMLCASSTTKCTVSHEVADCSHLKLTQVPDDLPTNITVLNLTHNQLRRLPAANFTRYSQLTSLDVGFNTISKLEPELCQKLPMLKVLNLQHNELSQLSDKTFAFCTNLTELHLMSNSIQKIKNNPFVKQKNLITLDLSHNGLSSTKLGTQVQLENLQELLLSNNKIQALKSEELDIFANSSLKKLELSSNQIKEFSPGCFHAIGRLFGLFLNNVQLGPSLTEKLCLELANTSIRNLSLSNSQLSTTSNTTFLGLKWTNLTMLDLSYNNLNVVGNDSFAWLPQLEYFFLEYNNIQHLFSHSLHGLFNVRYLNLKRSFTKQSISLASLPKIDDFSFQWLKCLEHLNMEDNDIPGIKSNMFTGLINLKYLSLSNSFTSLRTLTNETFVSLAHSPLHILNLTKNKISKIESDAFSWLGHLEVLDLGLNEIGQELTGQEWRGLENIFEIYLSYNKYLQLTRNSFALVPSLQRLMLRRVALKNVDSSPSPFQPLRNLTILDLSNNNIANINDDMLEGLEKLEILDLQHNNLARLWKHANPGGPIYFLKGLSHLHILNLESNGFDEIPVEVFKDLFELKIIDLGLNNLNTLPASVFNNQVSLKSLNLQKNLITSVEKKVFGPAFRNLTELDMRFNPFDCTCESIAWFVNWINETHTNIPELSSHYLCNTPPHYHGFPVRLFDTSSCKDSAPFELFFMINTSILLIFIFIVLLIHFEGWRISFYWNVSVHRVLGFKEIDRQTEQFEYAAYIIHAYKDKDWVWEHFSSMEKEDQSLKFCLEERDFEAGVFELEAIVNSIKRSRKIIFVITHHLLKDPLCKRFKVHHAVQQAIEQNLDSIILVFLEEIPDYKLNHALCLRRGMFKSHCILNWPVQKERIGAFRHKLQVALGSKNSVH

Broadly, the clearance is the volume of plasma or blood freed of the substance per unit of time. As usually defined, the bioavailability is dose-corrected exposure relative to a reference, in per cent. Usually EC50 stands for the concentration that produces a half-maximal response. With `CCC[C@H](C)Oc1nc(N)c2[nH]c(=O)n(CCCCCN3CCCCC3)c2n1` [GSK-2245035], the fold change (FC) was found to be 108 in data set [1], 53.7 in [4], 101 in [7] and 68.5 in [12]. The clearance in [2] was determined as 96 mL/min/kg; in [11], 107 mL/min/kg. Further, the bioavailability in data set [3] worked out at 1%; in data set [10] it was 42%. In addition, the result in data set [5] was inactive. In addition, the result with Mus musculus [6], in the data set with PBMC, in the data set on Mus musculus [9] and with Rattus norvegicus was Active. For the same compound, the EC50 was 63.1 nM at Toll-like receptor 7 [8], 0.891 nM on Toll-like receptor 7 [13] and 79.4 nM at Toll-like receptor 7 [14].
